Test results from article PMC6982022 (International Journal of Molecular Sciences, 2019).
“And” between values parts separate entries of the source, which are not always exact repeats. Equal values may be shown once.

Tests used:
C57BL6J mice [1] = assay: Epididymal sperm acrosome morphology (FITC-PSA staining) after 35 days oral dosing; assay type: in vivo, mouse; details: for Sperm morphology Abnormal, average (%) / Sperm morphology Normal, average (%): six mice/group
Method: (§1) Groups of six mice, each, were used for three different doses of NB-DNJ or NB-DGJ formulated in milliQ water at 50 mg/kg, 25 mg/kg and 15 mg/kg, respectively. Control groups were given an equivalent volume of water. Animals were given compound or control once daily for 35 consecutive days via oral gavage using animal feeding needles (Biomedical Needles, Popper, NY, USA). Body weight was noted every week for all treatment groups. Mice were euthanized at the end of a 35 days dosing regimen using CO2 asphyxia followed by cervical dislocation. Testes were harvested, weighed and stored in Bouin’s fixative for 48 h, then sliced into two halves, and stored in fresh Bouin’s for another 24 h. The tissue slices were then rinsed in 70% ethanol and processed and stained for histology using a standard protocol for Hematoxylin and eosin staining. Spermatids with elongated and abnormally shaped heads were counted per 20 fields and average number calculated for 6 mice/group.
For sperm retrieval, epididymis was removed from the animal and placed in Petri dish. One mL of capacitation buffer (Capacitation buffer consisted of 110 mM NaCl, 2.68 mM KCl, 0.36 mM NaH2PO4, 25 mM NaHCO3, 0.49 mM MgCl2, 2.40 mM CaCl2, 25 mM HEPES, 5.50 mM Glucose, 1 mM Pyruvic acid, pH 7.4; Tash and Bracho, 1998) at room temperature was added to the dish. Using forceps, the caput of the epididymis was held in place and the cauda sliced repeatedly with a razor blade. The spermatozoa were allowed to disperse for 15 min with gentle swirling intermittently. A 100 µL aliquot of the sperm suspension was dropped onto a standard glass microscope slide (Fisherbrand superfrost microscope slides 25 × 75 × 1.0 mm)) and smeared with side of pipette tip. The slides were air dried flat for 1 h at room temperature. The sperm smear was fixed in methanol for 2 min. The sperm smear was than stained using FITC-PSA (Fluorescein isothiocyanate Pisum Sativum Agglutinin; Vector Laboratories, Burlingame, CA) was diluted 1:7000 in PBS containing 1:10,000 DAPI dihydrochloride, FluoroPure™ grade, Invitrogen) (≥98% pure) to make the stock solution. To each slide, 100 µL of FITC-PSA was added and spread out with edge of pipette tip to cover the dried sperm smear. The slides were incubated at 37 °C for 10 min, and then washed with 5 changes of PBS for 5 min each. The slides were air-dried and mounted with 20 µL Vectashield mounting medium for fluorescence (Vector Laboratories, Burlingame, CA, USA) and observed. Slides were viewed on a Nikon IX-81 microscope under a 40× objective using FITC and DAPI filter to visualize acrosome morphology. The phase contrast images were also collected at the same magnification to compare morphological details.

C57BL6J mice [2] = assay: Testis histology (H&E) after 35 days oral dosing; assay type: in vivo, mouse; details: 15, 25 or 50 mg/kg, oral daily
Method: as §1

adult male CD rats = assay: Parameters measured at necropsy at end of fertility trial (week 11); assay type: in vivo, rat
Text: Rats were weighed on day 0 (first day of dosing) and weekly thereafter. Dosages were adjusted based on the most recent body weight. Males were cohabited with untreated females (one male per two females) weekly at weeks 1 through 9 [38, 39]. Females were necropsied seven days after separation from males to determine the numbers of implantation sites. Individual male rats were bled from the tail vein at weeks 0, 1, 4, and 7 and serum was harvested by centrifugation. At week 11, the male rats were weighed, anesthetized, and exsanguinated. Sera were analyzed for inhibin B by ELISA (enzyme-linked immunosorbent assay), and rat follicle stimulating hormone (rFSH) and testosterone by radioimmunoassay. Testes, epididymides, ventral prostates, and seminal vesicles were excised and weighed. The left testis was homogenized, and spermatid head counts obtained.
Sperm were obtained from the left cauda epididymis and evaluated for sperm motility, as follows. The cauda epididymis was punctured with an 18-gauge needle and sperm expressed into the well of a culture slide. The sperm were diluted with capacitation buffer containing 0.1% BSA to obtain about 20–40 sperm per field as viewed in the inverted microscope. The number of motile and non-motile sperm was determined, and the percent of motile sperm were calculated. A smear of the diluted sperm was also prepared and used to assess sperm morphology under phase contrast. The percent of normal/abnormal sperm were calculated.
Statistical analysis using the Student’s t-test was performed on body weights, paired testes weights, ventral prostrate weights, seminal vesicle weights, paired epididymal weights, spermatid head counts, percent motile and normal epididymal sperm. We used analysis of variance (ANOVA) for serum inhibin B, rFSH, and testosterone, since these measurements were repeated throughout the study period. The effect of NB-DNJ at 15 mg/kg/day dose in the rat model was studied following the same protocol as that for NB-DGJ.

[3] = 150 mg/kg/day on days 0-34, week 11, n = 6

CCCCN1C[C@H](O)[C@@H](O)[C@@H](O)[C@H]1CO [NB-DGJ, N-butyldeoxygalactonojirimycin]
Sperm morphology Abnormal, average (%) (C57BL6J mice [1]; 15 mg/kg oral daily): 51.59% | Sperm morphology Normal, average (%) (C57BL6J mice [1]; 15 mg/kg oral daily): 48.4% | Sperm morphology Abnormal, average (%) (C57BL6J mice [1]; 25 mg/kg oral daily): 62.05% | Sperm morphology Normal, average (%) (C57BL6J mice [1]; 25 mg/kg oral daily): 37.85% | Sperm morphology Abnormal, average (%) (C57BL6J mice [1]; 50 mg/kg oral daily): 88.21% | Sperm morphology Normal, average (%) (C57BL6J mice [1]; 50 mg/kg oral daily): 11.78% | Sperm acrosome morphology (in words) (C57BL6J mice [1]; 15, 25 and 50 mg/kg oral daily): dose-dependent increase in the number of abnormal spermatozoa | Testis histology, spermatid heads (in words) (C57BL6J mice [2]): rounded, abnormally shaped spermatid heads | Final Body Weight Week 11 (g ± SE) (adult male CD rats; 150 mg/kg/day on days 0-34, n = 6): 572 ± 17 g | Ventral prostate weight versus vehicle (adult male CD rats; 150 mg/kg/day on days 0-34, week 11, Student's t-test): No significant difference | Mean Epididymal Sperm Motility (%) (adult male CD rats; [3]): 60% and 60 ± 3 % | Mean Epididymal Sperm with Normal Morphology (% ± SE) (adult male CD rats; [3]): 72 ± 1 % | Mean Paired Epididymal Weight (g ± SE) (adult male CD rats; [3]): 1.64 ± 0.03 g | Mean Paired Testis Weight (g ± SE) (adult male CD rats; [3]): 3.80 ± 0.11 g | Mean Seminal Vesicle Weight with Coagulating Gland (adult male CD rats; [3]): 1.40 ± 0.11 g | Mean Spermatid Head Count/Testis (adult male CD rats; [3]): 123.59 ± 3.73 Cells × 10^6
